In PubChem BioAssay AID248 (DTP/NCI, 2004):
Values joined by “and” are separate entries in the source; they are usually repeats but may differ in a detail not shown here. Equal entries are not always repeated. Inconclusive results and toxic doses are left out. No stated cut-off is given here; in the data, active means T/C of 150% or more; inactive means T/C below 125%.

System: L1210 leukemia ip in BDF1 mice, survival T/C
Assay: NCI In Vivo Anticancer Drug Screen. Data for tumor model L1210 Leukemia (intraperitoneal) in B6D2F1 (BDF1) mice
Settings: endpoint: mean survival time, higher = longer survival
How it was run: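 Transplantable tumor model; survival measured in treated vs vehicle control mice. Value = treated/control.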

[1] = dose: 100.0 mg/kg/injection, schedule: Q04DX003 (ip), vehicle: Klucel (hydroxypropylcellulose) (HPC)
[2] = dose: 200.0 mg/kg/injection, schedule: Q01DX001 (ip), vehicle: saline
[3] = dose: 100.0 mg/kg/injection, schedule: Q01DX001 (ip), vehicle: carboxymethylcellulose (CMC)
[4] = dose: 200.0 mg/kg/injection, schedule: Q01DX001 (ip), vehicle: carboxymethylcellulose (CMC)
[5] = dose: 400.0 mg/kg/injection, schedule: Q01DX001 (ip), vehicle: carboxymethylcellulose (CMC)
[6] = dose: 100.0 mg/kg/injection, schedule: Q01DX009 (ip), vehicle: Klucel (hydroxypropylcellulose) (HPC)
[7] = dose: 200.0 mg/kg/injection, schedule: Q01DX009 (ip), vehicle: Klucel (hydroxypropylcellulose) (HPC)
[8] = dose: 400.0 mg/kg/injection, schedule: Q01DX009 (ip), vehicle: Klucel (hydroxypropylcellulose) (HPC)
[9] = dose: 200.0 mg/kg/injection, schedule: Q04DX003 (ip), vehicle: Klucel (hydroxypropylcellulose) (HPC)
[10] = dose: 400.0 mg/kg/injection, schedule: Q04DX003 (ip), vehicle: Klucel (hydroxypropylcellulose) (HPC)

Measured: T/C

CCC[CH2][Sn]([Cl])([CH2]CCC)[CH2]CCC
inactive: dose: 2.0 mg/kg/injection, schedule: Q01DX009 (ip), vehicle: saline 94 % of control | dose: 2.0 mg/kg/injection, schedule: Q04DX003 (ip), vehicle: saline 103 % of control | dose: 4.0 mg/kg/injection, schedule: Q01DX009 (ip), vehicle: saline 90 % of control | dose: 4.0 mg/kg/injection, schedule: Q04DX003 (ip), vehicle: saline 100 % of control | dose: 8.0 mg/kg/injection, schedule: Q01DX009 (ip), vehicle: saline 98 % of control | dose: 8.0 mg/kg/injection, schedule: Q04DX003 (ip), vehicle: saline 97 % of control

C#CCOc1ccccc1O
inactive: dose: 100.0 mg/kg/injection, schedule: Q01DX009 (ip), vehicle: acetone 94 % of control and 91 % of control | dose: 200.0 mg/kg/injection, schedule: Q01DX009 (ip), vehicle: acetone 94 % of control | dose: 400.0 mg/kg/injection, schedule: Q01DX009 (ip), vehicle: acetone 100 % of control and 92 % of control

CC(C)SC(=S)Nc1ccc(Cl)c(Cl)c1
inactive: dose: 30.0 mg/kg/injection, schedule: Q04DX003 (ip), vehicle: saline 95 % of control | dose: 60.0 mg/kg/injection, schedule: Q04DX003 (ip), vehicle: saline 98 % of control | dose: 120.0 mg/kg/injection, schedule: Q04DX003 (ip), vehicle: saline 95 % of control

Clc1ccc(Cl)c(/C=C/c2ccc(Cl)c(Cl)c2)c1
inactive: dose: 1.56 mg/kg/injection, schedule: Q01DX009 (ip), vehicle: Klucel (hydroxypropylcellulose) (HPC) 97 % of control | dose: 3.12 mg/kg/injection, schedule: Q01DX009 (ip), vehicle: Klucel (hydroxypropylcellulose) (HPC) 95 % of control | dose: 6.25 mg/kg/injection, schedule: Q01DX009 (ip), vehicle: Klucel (hydroxypropylcellulose) (HPC) 92 % of control and 100 % of control | [1] 97 % of control

Oc1ccc(C(c2ccc(O)cc2)(C(F)(F)F)C(F)(F)F)cc1
inactive: dose: 100.0 mg/kg/injection, schedule: Q01DX009 (ip), vehicle: saline with Tween-80 105 % of control | dose: 100.0 mg/kg/injection, schedule: Q04DX003 (ip), vehicle: alcohol 101 % of control | dose: 200.0 mg/kg/injection, schedule: Q01DX009 (ip), vehicle: saline with Tween-80 97 % of control | dose: 200.0 mg/kg/injection, schedule: Q04DX003 (ip), vehicle: alcohol 95 % of control | dose: 400.0 mg/kg/injection, schedule: Q01DX009 (ip), vehicle: saline with Tween-80 109 % of control | dose: 400.0 mg/kg/injection, schedule: Q04DX003 (ip), vehicle: alcohol 102 % of control

CCOc1ccccc1/C=N/Nc1c2ccccc2nc2ccccc12
inactive: dose: 100.0 mg/kg/injection, schedule: Q01DX001 (ip), vehicle: saline 90 % of control | [2] 97 % of control | dose: 400.0 mg/kg/injection, schedule: Q01DX001 (ip), vehicle: saline 92 % of control

COc1ccc(Oc2cc(OC)ccc2Oc2ccccc2)cc1
inactive: [3] 97 % of control | [4] 105 % of control | [5] 110 % of control

Cc1cccc(C)c1N=C/C=C/c1ccccc1
inactive: [6] 100 % of control | [7] 88 % of control | [8] 102 % of control

O=C(O)C1(Br)c2ccccc2-c2ccccc21
inactive: dose: 50.0 mg/kg/injection, schedule: Q01DX001 (ip), vehicle: carboxymethylcellulose (CMC) 100 % of control | dose: 50.0 mg/kg/injection, schedule: Q04DX003 (ip), vehicle: Klucel (hydroxypropylcellulose) (HPC) 100 % of control | [3] 100 % of control | [1] 94 % of control | [4] 96 % of control | [9] 96 % of control | [5] 105 % of control

Cc1cc(C(=O)/C=C(\C(=O)c2ccccc2)c2ccccc2)ccc1Cl
inactive: dose: 12.5 mg/kg/injection, schedule: Q04DX002 (ip), vehicle: Klucel (hydroxypropylcellulose) (HPC) 98 % of control | dose: 25.0 mg/kg/injection, schedule: Q04DX002 (ip), vehicle: Klucel (hydroxypropylcellulose) (HPC) 119 % of control | dose: 50.0 mg/kg/injection, schedule: Q04DX002 (ip), vehicle: Klucel (hydroxypropylcellulose) (HPC) 94 % of control | dose: 100.0 mg/kg/injection, schedule: Q04DX002 (ip), vehicle: Klucel (hydroxypropylcellulose) (HPC) 86 % of control

O=C(O)c1c(-c2ccccc2)[nH]c2ccccc2c1=O
inactive: [1] 88 % of control | [9] 87 % of control | [10] 90 % of control

COC(=O)C1=C(C(=O)OC)C2(C)C=CC1O2 (stereo unspecified)
inactive: dose: 3.12 mg/kg/injection, schedule: Q01DX009 (ip), vehicle: saline with Tween-80 98 % of control | dose: 6.25 mg/kg/injection, schedule: Q01DX009 (ip), vehicle: saline with Tween-80 93 % of control | dose: 12.5 mg/kg/injection, schedule: Q01DX009 (ip), vehicle: saline with Tween-80 98 % of control and 105 % of control | dose: 25.0 mg/kg/injection, schedule: Q01DX009 (ip), vehicle: saline with Tween-80 106 % of control

CCOC(=O)c1cnc(C)nc1Nc1ccccc1Cl
inactive: dose: 50.0 mg/kg/injection, schedule: Q04DX003 (ip), vehicle: saline 105 % of control | dose: 100.0 mg/kg/injection, schedule: Q04DX003 (ip), vehicle: saline 104 % of control | dose: 200.0 mg/kg/injection, schedule: Q04DX003 (ip), vehicle: saline 98 % of control and 108 % of control

Nc1nc(N)c(N=Cc2ccc(N(CCCl)CCCl)cc2)c(N)n1
inactive: dose: 50.0 mg/kg/injection, schedule: Q01DX001 (ip), vehicle: saline 100 % of control | [3] 103 % of control | [2] 103 % of control | [5] 100 % of control

CCCCCCCCC(=O)N1CCC(C)CC1
inactive: dose: 200.0 mg/kg/injection, schedule: Q04DX002 (ip), vehicle: Klucel (hydroxypropylcellulose) (HPC) 106 % of control | dose: 400.0 mg/kg/injection, schedule: Q04DX002 (ip), vehicle: Klucel (hydroxypropylcellulose) (HPC) 95 % of control

CN1CN(c2ccccc2)C2(CCN(CCCCCCCl)CC2)C1=O
inactive: dose: 75.0 mg/kg/injection, schedule: Q04DX003 (ip), vehicle: Klucel (hydroxypropylcellulose) (HPC) 95 % of control | dose: 150.0 mg/kg/injection, schedule: Q04DX003 (ip), vehicle: Klucel (hydroxypropylcellulose) (HPC) 96 % of control | dose: 300.0 mg/kg/injection, schedule: Q04DX003 (ip), vehicle: Klucel (hydroxypropylcellulose) (HPC) 95 % of control

O=C(Nc1ccccc1C(F)(F)F)C(c1ccccc1)c1ccccc1
inactive: [6] 93 % of control | [1] 96 % of control | [7] 88 % of control | [9] 96 % of control | [8] 90 % of control | [10] 95 % of control

COc1ccc(S(=O)(=O)/N=C(/C2CC3=CCC4C5CCC(=O)C5(C)CC(=O)C4C3(C)C2)N2CCCC2)cc1 (stereo unspecified)
inactive: dose: 100.0 mg/kg/injection, schedule: Q01DX001 (ip), vehicle: other 103 % of control | dose: 200.0 mg/kg/injection, schedule: Q01DX001 (ip), vehicle: other 108 % of control | dose: 400.0 mg/kg/injection, schedule: Q01DX001 (ip), vehicle: other 98 % of control

Cc1cccc(-c2nc(N)nc(N)n2)c1
inactive: dose: 75.0 mg/kg/injection, schedule: Q01DX001 (ip), vehicle: saline 106 % of control | dose: 150.0 mg/kg/injection, schedule: Q01DX001 (ip), vehicle: saline 104 % of control | dose: 300.0 mg/kg/injection, schedule: Q01DX001 (ip), vehicle: saline 101 % of control

N#CCCN(CCc1ccccn1)C(=S)Nc1cccc(C(F)(F)F)c1
inactive: dose: 100.0 mg/kg/injection, schedule: Q01DX009 (ip), vehicle: other 110 % of control | dose: 200.0 mg/kg/injection, schedule: Q01DX009 (ip), vehicle: other 98 % of control | dose: 400.0 mg/kg/injection, schedule: Q01DX009 (ip), vehicle: other 110 % of control
